Experimental data as given in patent publication US20260174769A1, “MACROCYCLIC COMPOUNDS AND METHODS OF USE” (AMGEN INC., priority 2022, published 2026).
Where a name gives a salt, the structure may show the parent alone. Read-outs that look alike come from different tables or passages of the source.

Assays:
[1] = system: Phosphorylation of ERK1/2 in AsPC-1 cells; assay: Phospho-ERK1/2 MSD Assay; type: cell-based, human; details: read-out: 2 h p-ERK (AsPC-1 cells), IC50
Experimental: Sixteen hours prior to compound treatment, AsPC-1 cells were seeded in 96-well cell culture plates at a density of 25,000 cells/well and incubated at 37° C., 5% CO2. A compound dose-response titration was diluted in growth media, added to appropriate wells of a cell culture plate, and then incubated at 37° C., 5% CO2 for 2 hours. […] Phosphorylation of ERK1/2 in compound-treated lysates was assayed using Phospho-ERK 1/2 Whole Cell Lysate kits (Meso Scale Discovery K151DWD) according to the manufacturer's protocol. Assay plates were read on a Meso Scale Discovery Sector Imager 6000, and data were analyzed using a 4-parameter logistic model to calculate IC50 values.

[2] = molecular target: GDP-bound KRAS protein (aa 1-169), containing both G12D and C118A amino acid substitutions (Homo sapiens, UniProt P01116, C118A/G12D); assay: KRAS G12D Coupled Nucleotide Exchange Assay; type: biochemical
Experimental: KRAS G12D Coupled Nucleotide Exchange Assay
The assay plates were then read on a PerkinElmer En Vision Multilabel Reader, using AlphaScreen® technology, and data were analyzed using a 4-parameter logistic model to calculate IC50 values.

[3] = molecular target: His-tagged KRAS G12D protein (Homo sapiens, UniProt P01116, G12D); assay: KRAS G12D TR-FRET Assay; type: binding
Method in brief: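 GDP-loaded His-KRAS G12D (20 nM in HEPES pH 7.4, MgCl2, NaCl, BSA, Tween-20, 10 μM GDP) preincubated with compound 30 min at room temperature, then 20 nM biotinylated KRPep-2d peptide added for 1 h. TR-FRET detection used Eu anti-His and streptavidin-d2, read after 1 h.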

AsPC-1 cells = assay: AsPC-1 CTG Assay (CellTiter-Glo cell viability, 72 h); type: cell-based, human; details: read-out: G12D/C/V Cell Proliferation CTG (72 h) AsPC-1
Experimental: AsPC-1 and SW620 CTG Assay Protocols
Serially-diluted compound or DMSO was added to the cells, and plates were incubated at 37° C., 5% CO2 for 72 h. Cell viability was measured using a CellTiter-Glo® Luminescent Cell Viability Assay kit (Promega) according to the manufacturer's protocol. The luminescence signal of treated samples was normalized to DMSO control, and data were analyzed using a 4-parameter logistic model to calculate IC50 values.

[4] = from CN[C@@H]1CCCN(c2nc(OC[C@@]34CCCN3C[C@H](F)C4)nc3cc(-c4c(CCCCC(=O)O)c(Cl)cc5[nH]ncc45)nnc23)C1; amide bond; 16-membered ring; EDCI/HOBt/DIEA; DCM; 10.3 mM; 25.0 °C; 36.0 h; 3 steps
[5] = Homo sapiens, ASPC1, 2 h, AsPC-1 cells, 2 h compound treatment
[6] = 2 hours compound pre-incubation, SOS-mediated nucleotide exchange
[7] = Homo sapiens, ASPC1, 72 h, AsPC-1 cells, 72 h, first value of cell
[8] = read-out: KRAS G12D Binding IC50
[9] = Homo sapiens, ASPC1, 2 h, AsPC-1 cells, 2 h
[10] = Homo sapiens, ASPC1, 72 h, AsPC-1 cells, 72 h, first value of the cell

Row | Molecule | IC50 [1, 5] [nM] | IC50 [2, 6] [nM] | IC50 ([3]; TR-FRET binding) [nM] | IC50 (AsPC-1 cells; [7]) [nM] | other results
1 | C[C@@]12COCCN(C1)c1nc(OC[C@@]34CCCN3C[C@H](F)C4)nc3c(F)c(ncc13)-c1c(c(F)cc3[nH]ncc13)CCCOC(=O)O2 [Example 184, (26S)-18,32-difluoro-4-(((2R,7aS)-2-fluorotetrahydro-1H-pyrrolo[1,2-a]pyrrol-7a(5H)-yl)methoxy)-26-methyl-23,25,28-trioxa-1,3,5,9,14,15-hexaazahexacyclo[24.4.1.1~6,10~.0~2,7~.0~11,19~.0~12,16~]dotriaconta-2,4,6,8,10(32),11,13,16,18-nonaen-24-one] | 11.8 | 2 | 4 | 120 | –
2 | O=C1CCCc2c(Cl)cc3[nH]ncc3c2-c2ncc3c(nc(OC[C@@]45CCCN4C[C@H](F)C5)nc3c2F)N2CCCC(CC1)C2 (mixture of isomers) [Example 236] | 950 | 19 | 55 | – | –
3 | O[C@@H]1C[C@H]2COCCCCc3c(Cl)cc4[nH]ncc4c3-c3ncc4c(nc(OC[C@@]56CCCN5C[C@H](F)C6)nc4c3F)N(C1)C2 (mixture of isomers) [Example 408, 2,2,2-trifluoroacetate salt] | – | – | – | – | IC50 [1]: 52.4 nM; IC50 [2]: 18 nM; IC50 [3, 8]: 24 nM
4 | CN1C(=O)CCCCc2c(Cl)cc3[nH]ncc3c2-c2cc3nc(OC[C@@]45CCCN4C[C@H](F)C5)nc(c3nn2)N2CCC[C@@H]1C2 | – | – | – | – | ring closure, yield after HPLC [4]: 20%
5 | CC1COC(=O)C[C@@H]2CCCN(C2)c2nc(OC[C@@]34CCCN3C[C@H](F)C4)nc3c(F)c(ncc23)-c2c(c(Cl)cc3[nH]ncc23)C1 (some centres unmarked) [Example 91] | 27 | 2 | 4 | 280 | –
6 | O=C1OCCCc2c(Cl)cccc2-c2ncc3c(nc(OC[C@@]45CCCN4C[C@H](F)C5)nc3c2F)N2CCOC[C@H](C2)O1 [Example 186, (23S)-15-chloro-29-fluoro-4-(((2R,7aS)-2-fluorotetrahydro-1H-pyrrolo[1,2-a]pyrrol-7a(5H)-yl)methoxy)-20,22,25-trioxa-1,3,5,9-tetraazapentacyclo[21.4.1.1~6,10~.0~2,7~.0~11,16~]nonacosa-2,4,6,8,10(29),11,13,15-octaen-21-one] | 200 | – | 12 | 1950 | –
7 | Cc1cc2[nH]ncc2c2c1CCCCOCC1CN(CCC1(F)F)c1nc(OC[C@@]34CCCN3C[C@H](F)C4)nc3c(F)c-2ncc13 (stereo partly drawn) [Example 227, (17R)-18,18,30-trifluoro-24-(((2R,7aS)-2-fluorotetrahydro-1H-pyrrolo[1,2-α]pyrrol-7a(SH)-yl)methoxy)-9-methyl-15-oxa-5,6,21.23,25,29-hexaazahexacyclo[24.3.1.1~17,21~.0~2,10~.0~3.7~.0~22,27~]hentriaconta-1(30),2,4,7,9,22,24,26,28-nonaene] | – | – | – | – | IC50 [1]: 611 nM; IC50 [2]: 12 nM; IC50 [3, 8]: 35 nM; IC50 (AsPC-1 cells): 3910 nM
8 | C[C@@]12CCCN(C1)c1nc(OC[C@@]34CCCN3C[C@H](F)C4)nc3c(F)c(ncc13)-c1cc(O)cc3ccc(F)c(c13)CCCC(=O)O2 [Example 43, (15R)-22,31-Difluoro-8-(((2R,7aS)-2-fluorotetrahydro-1H-pyrrolo[1,2-a]pyrrol-7a(5H)-yl)methoxy)-27-hydroxy-15-methyl-16-oxa-3,7,9,11-tetraazahexacyclo[19.7.1.1˜2,6˜.1˜11,15˜.0˜5,10˜.0˜25,29˜]hentriaconta-1(28),2(31),3,5,7,9,21,23,25(29),26-decaen-17-one bis(2,2,2-trifluoroacetate)] | 13 | 2 | 4 | 92 | –
9 | O=C1OCCCc2c(Cl)cc3[nH]ncc3c2-c2ncc3c(nc(OC[C@@]45CCCN4C[C@H](F)C5)nc3c2F)N2CCC[C@]3(C2)C[C@H](C3)O1 [Example 323, (1R,3S)-11-chloro-33-fluoro-25-(((2R,7aS)-2-fluorotetrahydro-1H-pyrrolo[1,2-a]pyrrol-7a(5H)-yl)methoxy)-4,6-dioxa-14,15,20,24,26,28-hexaazaheptacyclo[26.3.1.1~1,3~.1~19,23~.0~10,18~.0~13,17~.0~22,27~]tetratriaconta-10,12,15,17,19(33),20,22,24,26-nonaen-5-one] | 30.5 | – | – | 318 | –
10 | O[C@H]1C[C@@H]2CN(C1)c1nc(OC[C@@]34CCCN3C[C@H](F)C4)nc3c(F)c(ncc13)-c1c(c(Cl)cc3[nH]ncc13)CCCc1nc2no1 [Example 378, (18R,20S)-9-chloro-31-fluoro-25-(((2R,7aS)~2-fluorotetrahydro-1H-pyrrolo[1,2-α]pyrrol-7a(5H)-yl)methoxy)-15-oxa-5,6,16,22,24,26,30,33-octaazaheptacyclo[25.3.1.1~14,17~.1~18,22~.0~2,10~0~3,7~.0~23,28~]tritriaconta-1(31),2,4,7,9,14(33),16,23,25,27,29-undecaen-20-ol] | – | – | – | – | IC50 [1, 9]: 47.7 nM; IC50 (AsPC-1 cells; [10]): 782 nM
11 | Cc1cc2[nH]ncc2c2c1CCCOC(=O)CC1CCCN(C1)c1nc(OC[C@@]34CCCN3C[C@H](F)C4)nc3c(F)c-2ncc13 (some centres unmarked) [Example 39] | 16 | – | – | 191 | –
12 | O=C1OCCc2c(Cl)cc3[nH]ncc3c2-c2ncc3c(nc(OC[C@@]45CCCN4C[C@H](F)C5)nc3c2F)N2CCC[C@]3(C[C@@H](CO3)O1)C2 (single isomer, unassigned) [Example 315] | – | 2 | 3 | – | –
13 | O=C1OCCc2c(Cl)cc3[nH]ncc3c2-c2ncc3c(nc(OC[C@@]45CCCN4C[C@H](F)C5)nc3c2F)N2CCC[C@]3(C2)C[C@H](C3)O1 [Example 333, (1R,3S)-10-chloro-32-fluoro-24-(((2R,7aS)-2-fluorotetrahydro-1H-pyrrolo[1,2-a]pyrrol-7a(5H)-yl)methoxy)-4,6-dioxa-13,14,19,23,25,27-hexaazaheptacyclo[25.3.1.1~1,3~.1~18,22~.0~9,17~.0~12,16~.0~21,26~]tritriaconta-9,11,14,16,18(32),19,21,23,25-nonaen-5-one] | – | 127 | 314 | – | –
14 | O=C1OCCCc2c(Cl)cc3[nH]ncc3c2-c2ncc3c(nc(OC[C@H]4CC[C@@H]5COCCN54)nc3c2F)N2CCOC[C@H](C2)O1 [Example 185, (26S)-18-chloro-32-fluoro-4-((6R,8aR)-hexahydro-1H-pyrrolo[2,1-c][1,4]oxazin-6-ylmethoxy)-23,25,28-trioxa-1,3,5,9,14,15-hexaazahexacyclo[24.4.1.1~6,10~.0~2,7~.0~11,19~.0~12,16~]dotriaconta-2,4,6,8,10(32),11,13,16,18-nonaen-24-one] | – | 5 | 6 | – | –
15 | O[C@H]1C[C@@H]2CN(C1)c1nc(OC[C@@]34CCCN3C[C@H](F)C4)nc3c(F)c(ncc13)-c1c(c(Cl)cc3[nH]ncc13)CCCc1nc2no1 (racemic) [Example 377, (rac-18R,20S)-9-chloro-31-fluoro-25-(((2R,7a.S)-2-fluorotetrahydro-1H-pyrrolo[1,2-a]pyrrol-7a(5H)-yl)methoxy)-15-oxa-5,6,16,22,24,26,30,33-octaazaheptacyclo[25.3.1.1~14,17~.1~18,22~.0~2,10~0~3.7~.0~23,28~]tritriaconta-1(31),2,4,7,9,14(33),16,23,25,27,29-undecaen-20-ol] | – | – | – | – | IC50 [1, 9]: 9.9 nM; IC50 ([3]; TR-FRET, read-out: KRAS G12D Binding IC50): 5 nM; IC50 (AsPC-1 cells; [10]): 125 nM
16 | O=C1CCCCc2c(Cl)cc3[nH]ncc3c2-c2ncc3c(nc(OC[C@@]45CCCN4C[C@H](F)C5)nc3c2F)N2CCC3CCN1[C@H]3C2 (mixture of isomers) [Example 60] | 12 | 6 | 13 | – | –
17 | (185)-9-chloro-31-fluoro-25-(((2R,7a.S)-2-fluorotetrahydro-LH-pyrrolo[1,2-α]pyrrol-7a(5H)-yl)methoxy)-15-oxa-5,6,22,24,26,30,33-heptaazaheptacyclo[25.3.1.1~13,16~1~18,22~0~2,10~.0~3,7~.0~23,28~]tritriaconta-1(31),2,4,7,9,13,16(33),23,25,27,29-undecaene [Example 388] | – | – | – | – | IC50 [1]: 264 nM; IC50 [2]: 5 nM; IC50 [3, 8]: 13 nM
